Data: PubChem BioAssay AID2060621 (Molecular Pharmacology Branch, DTP, NCI, 2025)

System: 324938-238-R-J1-PDC complex spheroids viability
Test: Anticancer human tumor 324938-238-R-J1-PDC patient-derived bladder carcinoma cell line growth inhibition [CLK]
Conditions: for IC50: curve of first compound; for viability, T/C: stronger effect = lower value
Procedure, shortened: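 Patient-derived tumor cells grown as complex spheroids with HUVEC endothelial cells and mesenchymal stem cells, treated with drug combinations. Concentrations descend in half-log steps from near clinical Cmax, or from 10 microM if Cmax unknown.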

[1] = second compound 0.0316 µM, first compound 0.0316 µM
[2] = second compound 0.0316 µM, first compound 0.1 µM
[3] = second compound 0.0316 µM, first compound 0.316 µM
[4] = second compound 0.0316 µM, first compound 1 µM
[5] = second compound 0.0316 µM, first compound 3.16 µM
[6] = second compound 0.0316 µM, first compound 10 µM
[7] = second compound 0.1 µM, first compound 0.0316 µM
[8] = second compound 0.1 µM, first compound 0.1 µM
[9] = second compound 0.1 µM, first compound 0.316 µM
[10] = second compound 0.1 µM, first compound 1 µM
[11] = second compound 0.1 µM, first compound 3.16 µM
[12] = second compound 0.1 µM, first compound 10 µM
[13] = second compound 0.316 µM, first compound 0.0316 µM
[14] = second compound 0.316 µM, first compound 0.1 µM
[15] = second compound 0.316 µM, first compound 0.316 µM
[16] = second compound 0.316 µM, first compound 1 µM
[17] = second compound 0.316 µM, first compound 3.16 µM
[18] = second compound 0.316 µM, first compound 10 µM
[19] = second compound 1 µM, first compound 0.0316 µM
[20] = second compound 1 µM, first compound 0.1 µM
[21] = second compound 1 µM, first compound 0.316 µM
[22] = second compound 1 µM, first compound 1 µM
[23] = second compound 1 µM, first compound 3.16 µM
[24] = second compound 1 µM, first compound 10 µM
[25] = second compound 3.16 µM, first compound 0.0316 µM
[26] = second compound 3.16 µM, first compound 0.1 µM
[27] = second compound 3.16 µM, first compound 0.316 µM
[28] = second compound 3.16 µM, first compound 1 µM
[29] = second compound 3.16 µM, first compound 3.16 µM
[30] = second compound 3.16 µM, first compound 10 µM
[31] = second compound 10 µM, first compound 0.0316 µM
[32] = second compound 10 µM, first compound 0.1 µM
[33] = second compound 10 µM, first compound 0.316 µM
[34] = second compound 10 µM, first compound 1 µM
[35] = second compound 10 µM, first compound 3.16 µM
[36] = second compound 10 µM, first compound 10 µM
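Note: viability read after seven days of drug exposure.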
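Throughout, for viability, T/C: 100% = DMSO vehicle control wells.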

Compound `C#Cc1c(F)ccc2cc(O)cc(-c3ncc4c(N5CC6CCC(C5)N6)nc(OCC56CCCN5CC(F)C6)nc4c3F)c12` (centres undefined) + CNC(=O)c1ccc(Nc2nc(OC3CCCC3)c3c(-c4ccc5nc(C)oc5c4)c[nH]c3n2)c(OC)c1 has an IC50 (second compound 0.0316 µM) of 4700 nM, an IC50 (second compound 0.1 µM) of under 31.6 nM and an IC50 (second compound 0.316 µM) of under 31.6 nM. For the same compound, the IC50 (second compound 1 µM) was under 31.6 nM, the IC50 (second compound 3.16 µM) was under 31.6 nM and the IC50 (second compound 10 µM) was under 31.6 nM. For the same compound, the viability, T/C [1] was 73.7%, the viability, T/C [2] was 87.6% and the viability, T/C [3] was 71.8%. The viability, T/C [4] was 69.6%, the viability, T/C [5] was 57.8% and the viability, T/C [6] was 35.7%. For the same compound, the viability, T/C [7] was 29.6%, the viability, T/C [8] was 29.6% and the viability, T/C [9] was 21.5%. It also gave a viability, T/C [10] of 22.8%, a viability, T/C [11] of 20.5% and a viability, T/C [12] of 18.6%. For the same compound, the viability, T/C [13] was 20.1%, the viability, T/C [14] was 18.9% and the viability, T/C [15] was 14.5%. The viability, T/C [16] was 16.9%, the viability, T/C [17] was 12.7% and the viability, T/C [18] was 14.8%. The viability, T/C [19] was 14.8%, the viability, T/C [20] was 14.9% and the viability, T/C [21] was 13.8%. It also gave a viability, T/C [22] of 15.1%, a viability, T/C [23] of 14.8% and a viability, T/C [24] of 15.6%. It also gave a viability, T/C [25] of 13.5%, a viability, T/C [26] of 16.4% and a viability, T/C [27] of 14.8%. It also gave a viability, T/C [28] of 16.8%, a viability, T/C [29] of 12.4% and a viability, T/C [30] of 12.4%. It also gave a viability, T/C [31] of 15.9%, a viability, T/C [32] of 18% and a viability, T/C [33] of 16.2%. The viability, T/C [34] was 16.8%, the viability, T/C [35] was 16.2% and the viability, T/C [36] was 11.5%.
Compound `C=C(F)C(=O)N1CCN(c2nc(OCC3CCCN3C)nc3c2CCN(c2cccc4cccc(Cl)c24)C3)CC1CC#N` (centres undefined) + CNC(=O)c1ccc(Nc2nc(OC3CCCC3)c3c(-c4ccc5nc(C)oc5c4)c[nH]c3n2)c(OC)c1 has an IC50 (second compound 0.0316 µM) of 2360 nM, an IC50 (second compound 0.1 µM) of under 31.6 nM and an IC50 (second compound 0.316 µM) of under 31.6 nM. For the same compound, the IC50 (second compound 1 µM) was under 31.6 nM, the IC50 (second compound 3.16 µM) was under 31.6 nM and the IC50 (second compound 10 µM) was under 31.6 nM. The viability, T/C [1] was 89%, the viability, T/C [2] was 82.6% and the viability, T/C [3] was 83.2%. For the same compound, the viability, T/C [4] was 75.7%, the viability, T/C [5] was 41.3% and the viability, T/C [6] was 0.18%. For the same compound, the viability, T/C [7] was 23.1%, the viability, T/C [8] was 24.9% and the viability, T/C [9] was 25.2%. The viability, T/C [10] was 23.1%, the viability, T/C [11] was 24.9% and the viability, T/C [12] was 0.17%. For the same compound, the viability, T/C [13] was 16.2%, the viability, T/C [14] was 16.2% and the viability, T/C [15] was 17.7%. For the same compound, the viability, T/C [16] was 20.2%, the viability, T/C [17] was 16.7% and the viability, T/C [18] was 0.14%. It also gave a viability, T/C [19] of 18%, a viability, T/C [20] of 17% and a viability, T/C [21] of 15.3%. The viability, T/C [22] was 17.6%, the viability, T/C [23] was 16.4% and the viability, T/C [24] was 0.16%. The viability, T/C [25] was 17.5%, the viability, T/C [26] was 15.3% and the viability, T/C [27] was 14.6%. The viability, T/C [28] was 16.4%, the viability, T/C [29] was 14.5% and the viability, T/C [30] was 0.17%. For the same compound, the viability, T/C [31] was 16.7%, the viability, T/C [32] was 16.8% and the viability, T/C [33] was 15.5%. The viability, T/C [34] was 18.6%, the viability, T/C [35] was 14.3% and the viability, T/C [36] was 0.3%.
